{"source": "ChEMBL document CHEMBL3507680", "about": "“University of Dundee, Gates Library screen for HepG2 cell viability”", "key": {"[1]": {"experiment": "Human HepG2 cell viability dose-response assay", "format": "toxicity, cell-based"}, "[2]": {"experiment": "Human HepG2 cell viability assay in 384 well format", "format": "toxicity, cell-based", "set-up": "dose 125 nL, time 70.5 hour; cytotoxicity at 70.5 h: concentration not given beside the values", "conditions": "HepG2 cells, read-out: Inhibition"}}, "note": "Several values for one entry are separate records, joined by “and”; a condition that tells them apart may be missing. Identical values can stand only once.", "data": [{"compound": "CC(C)N1CCN(c2ccc3ccc(C(=O)NC4CCCC4)cn23)CC1.O=C(O)C(F)(F)F", "values": [{"measurement": "BOTTOM", "setting": "[1]", "result": 0}, {"measurement": "HILLSLOPE", "setting": "[1]", "result": 0}, {"measurement": "TOP", "setting": "[1]", "result": 0}, {"measurement": "pXC50", "setting": "[1]", "result": "< 4.53"}, {"measurement": "cytotoxicity at 70.5 h", "setting": "[2]", "result": 101, "unit": "%"}]}, {"compound": "NCC1CCN(C2CCN(c3ccc(-c4ccco4)cc3)CC2)C1", "note": "(stereo not given)", "values": [{"measurement": "BOTTOM", "setting": "[1]", "result": "-8.648 and -4.813"}, {"measurement": "HILLSLOPE", "setting": "[1]", "result": "7.574 and 7.233"}, {"measurement": "TOP", "setting": "[1]", "result": "102.1 and 102.4"}, {"measurement": "pXC50", "setting": "[1]", "result": "5.593 and 5.596"}, {"measurement": "cytotoxicity at 70.5 h", "setting": "[2]", "result": 102, "unit": "%"}]}, {"compound": "Cc1cccc(C)c1Nc1noc2c1CN(C(=O)c1cn(C)cn1)CC2", "values": [{"measurement": "BOTTOM", "setting": "[1]", "result": "-7.032 and -2.364"}, {"measurement": "HILLSLOPE", "setting": "[1]", "result": "1.548 and 1.741"}, {"measurement": "TOP", "setting": "[1]", "result": 100}, {"measurement": "pXC50", "setting": "[1]", "result": "4.986 and 4.918"}, {"measurement": "cytotoxicity at 70.5 h", "setting": "[2]", "result": 75.1, "unit": "%"}]}, {"compound": "Cc1cc(NC2CCc3nc(C(C)C)nn3C2)n2ncnc2n1", "note": "(stereo not given)", "values": [{"measurement": "BOTTOM", "setting": "[1]", "result": 0}, {"measurement": "HILLSLOPE", "setting": "[1]", "result": 0}, {"measurement": "TOP", "setting": "[1]", "result": 0}, {"measurement": "pXC50", "setting": "[1]", "result": "< 4.53"}, {"measurement": "cytotoxicity at 70.5 h", "setting": "[2]", "result": 84.4, "unit": "%"}]}, {"compound": "Cc1noc(C)c1C(=O)N1CCCC1c1c(C)nn(C)c1Cl", "note": "(stereo not given)", "values": [{"measurement": "BOTTOM", "setting": "[1]", "result": 0}, {"measurement": "HILLSLOPE", "setting": "[1]", "result": 0}, {"measurement": "TOP", "setting": "[1]", "result": 0}, {"measurement": "pXC50", "setting": "[1]", "result": "< 4.53"}, {"measurement": "cytotoxicity at 70.5 h", "setting": "[2]", "result": 103, "unit": "%"}]}, {"compound": "Cc1n[nH]c(C2CN(CC(=O)NCCC3=CCCCC3)CCO2)n1", "note": "(stereo not given)", "values": [{"measurement": "BOTTOM", "setting": "[1]", "result": 0}, {"measurement": "HILLSLOPE", "setting": "[1]", "result": 0}, {"measurement": "TOP", "setting": "[1]", "result": 0}, {"measurement": "pXC50", "setting": "[1]", "result": "< 4.53"}, {"measurement": "cytotoxicity at 70.5 h", "setting": "[2]", "result": 76.6, "unit": "%"}]}, {"compound": "CCc1[nH]c2c(CNc3cc(C)nc(NC)n3)cc(C)cc2c1C", "values": [{"measurement": "BOTTOM", "setting": "[1]", "result": "-3.677 and -3.483"}, {"measurement": "HILLSLOPE", "setting": "[1]", "result": "3.229 and 3.201"}, {"measurement": "TOP", "setting": "[1]", "result": "103.4 and 104.1"}, {"measurement": "pXC50", "setting": "[1]", "result": "5.247 and 5.258"}, {"measurement": "cytotoxicity at 70.5 h", "setting": "[2]", "result": 98.3, "unit": "%"}]}]}
